Measurements as given in patent US20160046592A1, “PHARMACEUTICAL COMPOSITION FOR THE TREATMENT OF DIABETES” (Ajinomoto Co., Inc., priority 2013, published 2016).
Where a name gives a salt, the structure may show the parent alone.

These compounds were tested against T1, PPAR-α (Homo sapiens, UniProt Q07869) (assay: Measurement of PPAR-α activity (GAL4 luciferase reporter assay in CV-1 cells)). Settings: 100(A/B): A = maximum PPAR-α activity of test compound at 3, 10, 30 and 100 μM, B = activity of the compound of WO/2011/058154 at 100 μM, 18 to 20 hours, read-out: Relative fold induction (%) of PPAR α.
T1 construct: expressed in transfected cells; host or cells: CV-1 (African green monkey kidney)
T1 sequence (Q07869 167-468): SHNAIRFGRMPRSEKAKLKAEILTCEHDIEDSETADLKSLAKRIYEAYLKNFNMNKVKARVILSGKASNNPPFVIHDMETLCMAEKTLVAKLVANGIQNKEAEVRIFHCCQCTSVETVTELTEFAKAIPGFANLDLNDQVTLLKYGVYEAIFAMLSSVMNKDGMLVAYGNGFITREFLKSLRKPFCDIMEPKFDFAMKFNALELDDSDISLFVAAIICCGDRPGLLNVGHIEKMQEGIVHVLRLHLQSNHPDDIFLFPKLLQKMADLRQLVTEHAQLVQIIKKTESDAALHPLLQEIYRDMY
Type: cell-based
Experimental: The PPAR-α activity was measured according to the published article (THE JOURNAL OF BIOLOGICAL CHEMISTRY Vol. 270, No 0.22: 12953-12956, 1995).
Plasmids used for the PPAR-α activity measurement were constructed as follows. A luciferase expression plasmid (UAS×5-TK-Luc) used was obtained by introducing a sequence in which five yeast GAL4-binding sequences are linked in tandem into a portion upstream of a thymidine kinase promoter of pTAL-Luc (Takara Bio Inc., 6252-1). A PPAR-α receptor expression plasmid (hGR-GAL4-hPPARα) used was obtained by introducing a human GR N-terminal region (1-76aa), a yeast GAL4 DNA-binding region (1-147aa), and a PPARα ligand-binding region (167-468aa) between Not I and Sal I sites of pExchange-1 Core Vector (Invitrogen, 211176).
A reporter assay was conducted by the following method using African green monkey kidney-derived CV-1 cells. The CV-1 cells were seeded in a 96-well plate (Thermo Fisher Scientific K.K., 4938) at 2×10^4 cells/well by using a 10% FBS-containing DMEM (NACALAI TESQUE, INC., 0845874) medium. After culturing under conditions of 37° C. and 5% CO2 for 2 hours, the cells were transfected with the plasmids. The transfection was conducted by using Lipofectamine LTX (Invitrogen, 15338-100) according to the attached manual. The plasmid solution was prepared by adding a mixture solution of the luciferase expression plasmid and the PPAR-α receptor expression plasmid to OPTI-MEM I (Invitrogen, 11058-021). After the transfection, the test compound was added, and the cells were cultured at 37° C. in the presence of 5% CO2 for 18 to 20 hours. After the culturing, the luciferase activity was measured with Luminescensor JNR (ATTO) by using Bright-Glo (Promega, E2620).
The fold induction of PPAR-α by each test compound was calculated by the following method. A relative fold induction (%) of PPAR-α by the test compound was defined as 100 (A/B), where A represents the maximum value of the PPAR-α activities of the test compound at 3 μM, 10 μM, 30 μM, and 100 μM, and B represents the PPAR-α activity of the compound of WO/2011/058154 at 100 μM.
`CSc1cc(F)c(F)cc1-c1ccc(OCc2cccc(C(=O)N(CCC(C)O)CC(=O)O)c2)cc1` (stereo not shown) [Example 21, 2-[[3-[[4-(4,5-Difluoro-2-methylsulfanyl-phenyl)phenoxy]methyl]benzoyl]-(3-hydroxybutyl)amino]acetic Acid] showed an Emax of 15%.
With `CSc1cc(F)c(F)cc1-c1ccc(OCc2cccc(C(=O)N(CC(=O)O)[C@@H](C)C(N)=O)c2)cc1` [Example 22, 2-[[(1S)-2-Amino-1-methyl-2-oxo-ethyl]-[3-[[4-(4,5-difluoro-2-methylsulfanyl-phenyl)phenoxy]methyl]benzoyl]amino]acetic Acid] the Emax was 14%.
Compound `COC(C)(C)CN(CC(=O)O)C(=O)c1cccc(COc2ccc(-c3cc(F)c(F)cc3SC)cc2)c1` [Example 23, 2-[[3-[[4-(4,5-Difluoro-2-methylsulfanyl-phenyl)phenoxy]methyl]benzoyl]-(2-methoxy-2-methyl-propyl)amino]acetic Acid] has an Emax of 22%.
With `CCN(CC)CCN(CC(=O)O)C(=O)c1cccc(COc2ccc(-c3cc(F)c(F)cc3SC)cc2)c1` [Example 24, 2-[2-Diethylaminoethyl-[3-[[4-(4,5-difluoro-2-methylsulfanyl-phenyl)phenoxy]methyl]benzoyl]amino]acetic Acid Trifluoroacetate] the Emax was 13%.
Work on `CSc1cc(F)c(F)cc1-c1ccc(OCc2cccc(C(=O)N(CC(=O)O)CC(=O)N3CCCC3)c2)cc1` [Example 25, 2-[[3-[[4-(4,5-Difluoro-2-methylsulfanyl-phenyl)phenoxy]methyl]benzoyl]-(2-oxo-2-pyrrolidin-1-yl-ethyl)amino]acetic Acid] yielded an Emax of 13%.
In the case of `CSc1cc(F)c(F)cc1-c1ccc(OCc2cccc(C(=O)N(CCCN(C)C)CC(=O)O)c2)cc1` [Example 26, 2-[[3-[[4-(4,5-Difluoro-2-methylsulfanyl-phenyl)phenoxy]methyl]benzoyl]-[3-(dimethylamino)propyl]amino]acetic Acid Trifluoroacetate], the Emax is reported as 11%.
`CSc1cc(F)c(F)cc1-c1ccc(OCc2cccc(C(=O)N(CC(=O)O)CC(=O)O)c2)cc1` [Example 27, 2-[Carboxymethyl-[3-[[4-(4,5-difluoro-2-methylsulfanyl-phenyl)phenoxy]methyl]benzoyl]amino]acetic Acid] was tested, and the Emax was 10%.
Compound `CSc1cc(F)c(F)cc1-c1ccc(OCc2cccc(C(=O)N3C[C@H](O)C[C@H]3C(=O)O)c2)cc1` [Example 29, (2S,4R)-1-[3-[[4-(4,5-Difluoro-2-methylsulfanyl-phenyl)phenoxy]methyl]benzoyl]-4-hydroxy-pyrrolidine-2-carboxylic Acid] has an Emax of 22%.
In the case of `COCCCN(CC(=O)O)C(=O)c1cccc(COc2ccc(-c3cc(F)c(F)cc3SC)cc2)c1` [Example 30, 2-[[3-[[4-(4,5-Difluoro-2-methylsulfanyl-phenyl)phenoxy]methyl]benzoyl]-(3-methoxypropyl)amino]acetic Acid], the Emax is reported as 83%.
Compound `CSc1cc(F)c(F)cc1-c1ccc(OCc2cccc(C(=O)N(CCS(C)(=O)=O)CC(=O)O)c2)cc1` [Example 31, 2-[[3-[[4-(4,5-Difluoro-2-methylsulfanyl-phenyl)phenoxy]methyl]benzoyl]-(2-methylsulfonylethyl)amino]acetic Acid] has an Emax of 8.4%.
With `CSc1cc(F)c(F)cc1-c1ccc(OCc2cccc(C(=O)N(CCCS(C)(=O)=O)CC(=O)O)c2)cc1` [Example 32, 2-[[3-[[4-(4,5-Difluoro-2-methylsulfanyl-phenyl)phenoxy]methyl]benzoyl]-(3-methylsulfonylpropyl)amino]acetic Acid] the Emax was 7.1%.
For `CSc1cc(F)c(F)cc1-c1ccc(OCc2cccc(C(=O)N(CC(=O)O)CC3CCOCC3)c2)cc1` [Example 34, 2-[[3-[[4-(4,5-Difluoro-2-methylsulfanyl-phenyl)phenoxy]methyl]benzoyl]-(tetrahydropyran-4-ylmethyl)amino]acetic Acid], the Emax was 7.3%.
Compound `CSc1cc(F)c(F)cc1-c1ccc(OCc2cccc(C(=O)N(CC(=O)O)C3CCNCC3)c2)cc1` [Example 36, 2-[[3-[[4-(4,5-Difluoro-2-methylsulfanyl-phenyl)phenoxy]methyl]benzoyl]-(4-piperidyl)amino]acetic Acid Trifluoroacetate] has an Emax of 8%.
`CSc1cc(F)c(F)cc1-c1ccc(OCc2cccc(C(=O)N(CC(=O)O)CC3CCN(C)CC3)c2)cc1` [Example 37, 2-[[3-[[4-(4,5-Difluoro-2-methylsulfanyl-phenyl)phenoxy]methyl]benzoyl]-[(1-methyl-4-piperidyl)methyl]amino]acetic Acid Trifluoroacetate] was tested, and the Emax was 10%.
With `CCN1CCC(CN(CC(=O)O)C(=O)c2cccc(COc3ccc(-c4cc(F)c(F)cc4SC)cc3)c2)CC1` [Example 38, 2-[[3-[[4-(4,5-Difluoro-2-methylsulfanyl-phenyl)phenoxy]methyl]benzoyl]-[(1-ethyl-4-piperidyl)methyl]amino]acetic Acid Trifluoroacetate] the Emax was 8.9%.
For `CSc1cc(F)c(F)cc1-c1ccc(OCc2cccc(C(=O)N(CC(=O)O)Cc3cccnc3)c2)cc1` [Example 39, 2-[[3-[[4-(4,5-Difluoro-2-methylsulfanyl-phenyl)phenoxy]methyl]benzoyl]-(3-pyridylmethyl)amino]acetic Acid Trifluoroacetate], the Emax was 22%.
`CSc1cc(F)c(F)cc1-c1ccc(OCc2cccc(C(=O)N(CCN3CCS(=O)(=O)CC3)CC(=O)O)c2)cc1` [Example 41, 2-[[3-[[4-(4,5-Difluoro-2-methylsulfanyl-phenyl)phenoxy]methyl]benzoyl]-[2-(1,1-dioxo-1,4-thiazinan-4-yl)ethyl]amino]acetic Acid Trifluoroacetate] was tested, and the Emax was 12%.
Work on `CCNCCN(CC(=O)O)C(=O)c1cccc(COc2ccc(-c3cc(F)c(F)cc3SC)cc2)c1` [Example 43, 2-[[3-[[4-(4,5-Difluoro-2-methylsulfanyl-phenyl)phenoxy]methyl]benzoyl]-[2-(ethylamino)ethyl]amino]acetic Acid Trifluoroacetate] yielded an Emax of 9%.
`CSc1cc(F)c(F)cc1-c1ccc(OCc2cccc(C(=O)N(CCNC(C)=O)CC(=O)O)c2)cc1` [Example 44, 2-[2-Acetamidoethyl-[3-[[4-(4,5-difluoro-2-methylsulfanyl-phenyl)phenoxy]methyl]benzoyl]amino]acetic Acid] gave an Emax of 25%.
For `COC(C)CN(CC(=O)O)C(=O)c1cccc(COc2ccc(-c3cc(F)c(F)cc3SC)cc2)c1` (stereo not shown) [Example 45, 2-[[3-[[4-(4,5-Difluoro-2-methylsulfanyl-phenyl)phenoxy]methyl]benzoyl]-(2-methoxypropyl)amino]acetic Acid], the Emax was 25%.
`CSc1cc(F)c(F)cc1-c1ccc(OCc2cccc(C(=O)N(CC(=O)O)CC3CCS(=O)(=O)C3)c2)cc1` (stereo not shown) [Example 46, 2-[[3-[[4-(4,5-Difluoro-2-methylsulfanyl-phenyl)phenoxy]methyl]benzoyl]-[(1,1-dioxothiolan-3-yl)methyl]amino]acetic Acid] was tested, and the Emax was 4.6%.
For `CSc1cc(F)c(F)cc1-c1ccc(OCc2cccc(C(=O)N(CC(=O)O)Cc3cnco3)c2)cc1` [Example 47, 2-[[3-[[4-(4,5-Difluoro-2-methylsulfanyl-phenyl)phenoxy]methyl]benzoyl]-(oxazol-5-ylmethyl)amino]acetic Acid], the Emax was 7.3%.
